Tests used:
[1] = system: subjects with dry eye syndrome; experiment: VISTA-1 clinical study (NCT03764735): central corneal fluorescein staining; type: in vivo, human; settings: for Change from baseline in central corneal fluorescein staining, ANCOVA model LS Mean (SE) / Difference in Means, Active - Placebo (two-sample t-test), central corneal fluorescein staining change: 57 days, mITT; for Change from baseline in central corneal fluorescein staining, Mean (SD): after 57 days, mITT population, scale 0-4; for Change from baseline in central fluorescein staining, LS Mean: ITT subgroup, observed data only
Description: The VISTA-1 clinical study (NCT03764735) evaluated ophthalmic solutions with different concentrations of SkQ1 for various aspects of safety and effectiveness compared to placebo (vehicle) for treatment of various signs and symptoms of DED. The vehicle was an artificial tear treatment used as a control.
The VISTA-1 study reported change of level of corneal fluorescein staining from baseline to day 57. The level of corneal fluorescein scale ranged from 0 to 4, where level 0=none and level 4=severe. VISTA-1 reported a change in symptoms such as subject-reported grittiness from baseline to day 57, where the scale ranged from 0 to 5 for each symptom, where 0=none and 5=worst. Study subjects were carefully monitored for any adverse events.
(§1) In addition to the reported data, observed data collected during the VISTA-1 and VISTA-2 clinical studies were analyzed in an ITT subgroup with an unanesthetized Schirmer's Test ≥7 mm at baseline (initial evaluation).
(§2) In both VISTA-1 and VISTA-2, post-hoc analyses were conducted on observed data for the ITT subgroup including subjects with an unanesthetized Schirmer's test score of ≥7 mm at baseline, with observed data only to evaluate change from baseline in central fluorescein staining. Table 4 summarizes the results for subjects with unanesthetized Schirmer's test score of […] at baseline. […] In VISTA-2, with increased sample size, significant improvement was confirmed in this subgroup (pANCOVA=0.0168). In Table 4, the change from baseline in central fluorescein staining for the ITT subgroup with unanesthetized Schirmer's test score of ≥7 mm at baseline is provided with observed data only.
(§3) A similar subgroup, as described above, was also analyzed in post-hoc analyses for both VISTA-1 and VISTA-2 to evaluate the proportion of subjects with clearing of corneal fluorescein staining in the central region. […] In VISTA-2, with increased sample size, significant improvement was confirmed (pLogistic regression=0.0049, pPearson chi-squared=0.0033, pFisher's exact test=0.0037). In Table 5, the proportion of study subjects with clearing of corneal fluorescein staining in the central corneal region, for the ITT Subgroup with unanesthetized Schirmer's test score of ≥7 mm at baseline is presented, with observed data only.

[2] = system: subjects with dry eye syndrome; experiment: VISTA-2 clinical study (NCT04206020): central corneal fluorescein staining; type: in vivo, human; settings: for Change from baseline in central fluorescein staining, LS Mean: 1.55 μg/mL SkQ1, ITT subgroup, observed data only
Procedure: The VISTA-2 (NCT04206020) clinical study reported results of a dose of 1.55 μg/mL SkQ1 compared to placebo (vehicle). VISTA-2 reported a measured change of ocular discomfort scale. The scale ranged from 0 to 4 with 0=no discomfort and 4=constant discomfort from baseline to Day 57. VISTA-2 reported a measured change of level of conjunctival fluorescein staining (sum of temporal and nasal regions). The scale in each region ranged from 0 to 4, with 0=no staining and 4=confluent staining from baseline to day 57. Study subjects were carefully monitored for any adverse events.
as §1, §2, §3

[3] = system: subjects with dry eye syndrome; experiment: VISTA-2 clinical study: best corrected visual acuity (BCVA-logMAR); type: in vivo, human; settings: blurred vision [OSDI 4]≥1, poor vision [OSDI 5]≥1 at baseline
Description: Visual acuity can be measured by a health care provider to provide a sign of DED. The visual acuity can be a best corrected visual acuity (BCVA) of an eye or of both eyes. A logarithm of the minimum angle of resolution (LogMAR) chart such, for example, a Bailey-Lovie chart or an Early Treatment Diabetic Retinopathy Study chart can be utilized to measure BCVA. The number of letters read correctly by a subject can be converted to logMAR scores. The VISTA-2 (NCT04206020) clinical study reported results of a dose of 1.55 μg/mL SkQ1 compared to placebo (vehicle). VISTA-2 reported a measured change of ocular discomfort scale. The scale ranged from 0 to 4 with 0=no discomfort and 4=constant discomfort from baseline to Day 57. VISTA-2 reported a measured change of level of conjunctival fluorescein staining (sum of temporal and nasal regions). The scale in each region ranged from 0 to 4, with 0=no staining and 4=confluent staining from baseline to day 57. Study subjects were carefully monitored for any adverse events. [table] In VISTA-2, change from baseline in BCVA using a logMAR (BCVA-logMAR) at Visit 3 was evaluated in the ITT subgroup including subjects with Schirmer's test score ≥7 mm, blurred vision [OSDI 4]≥1, and poor vision [OSDI 5]≥1 at baseline. Significant improvement was shown in VISTA-2 with pANCOVA=0.0143. […]

[4] = system: eye; settings: cited from earlier work
[5] = VISTA-1, 1.55 μg/mL SkQ1, ITT subgroup Schirmer's ≥7 mm at baseline
[6] = VISTA-1, 1.55 μg/mL SkQ1, ITT subgroup Schirmer's ≥7 mm at baseline, of 46 subjects
[7] = 1.55 μg/mL SkQ1, ITT subgroup Schirmer's ≥7 mm at baseline
[8] = 1.55 μg/mL SkQ1, ITT subgroup Schirmer's ≥7 mm at baseline, of 78 subjects

SkQ1
Change from baseline in central corneal fluorescein staining, ANCOVA model LS Mean (SE) ([1]; 0.155 μg/mL SkQ1): −0.31 (0.059)
Difference in Means, Active - Placebo (two-sample t-test), central corneal fluorescein staining change ([1]; 0.155 μg/mL SkQ1): −0.02
Change from baseline in central corneal fluorescein staining, ANCOVA model LS Mean (SE) ([1]; 0.155 μg/mL SkQ1, listed as SkQ): −0.31
Change from baseline in central corneal fluorescein staining, Mean (SD) ([1]; 0.155 μg/mL SkQ1 ophthalmic solution BID): −0.30 (0.816)
Change from baseline in central corneal fluorescein staining, ANCOVA model LS Mean (SE) ([1]; 1.55 μg/mL SkQ1): −0.20 (0.058)
Difference in Means, Active - Placebo (two-sample t-test), central corneal fluorescein staining change ([1]; 1.55 μg/mL SkQ1): 0.08
Change from baseline in central corneal fluorescein staining, ANCOVA model LS Mean (SE) ([1]; 1.55 μg/mL SkQ1, listed as SkQ6): −0.20
Change from baseline in central corneal fluorescein staining, Mean (SD) ([1]; 1.55 μg/mL SkQ1 ophthalmic solution BID): −0.20 (0.763)
Treatment effect on the central fluorescein staining sign of dry eye vs placebo ([1]; 0.155 and 1.55 μg/mL SkQ1 ophthalmic solution, all treatment groups): no statistically significant beneficial treatment effect
Proportion of Subjects with Fluorescein Staining in the Central Region (>0 Score) [1, 5]: (84.8%)
Proportion of Subjects without Fluorescein Staining in the Central Region (=0 Score) [1, 5]: (15.2%)
Number of Subjects with Fluorescein Staining in the Central Region (>0 Score) [1, 6]: 39
Number of Subjects without Fluorescein Staining in the Central Region (=0 Score) [1, 6]: 7
Change from baseline in central fluorescein staining, LS Mean ([1]; VISTA-1, 1.55 μg/mL SkQ1, unanesthetized Schirmer's test <7 mm at baseline): −0.20
Change from baseline in central fluorescein staining, LS Mean ([1]; VISTA-1, 1.55 μg/mL SkQ1, unanesthetized Schirmer's test ≥7 mm at baseline): −0.46
Odds Ratio, Logistic Regression, clearing of central corneal fluorescein staining, 1.55 μg/mL SkQ1 - Placebo ([1]; VISTA-1, ITT subgroup Schirmer's ≥7 mm at baseline): 7.57
Proportion of Subjects with Fluorescein Staining in the Central Region (>0 Score) [2, 7]: (83.3%)
Proportion of Subjects without Fluorescein Staining in the Central Region (=0 Score) [2, 7]: (16.7%)
Number of Subjects with Fluorescein Staining in the Central Region (>0 Score) [2, 8]: 65
Number of Subjects without Fluorescein Staining in the Central Region (=0 Score) [2, 8]: 13
Change from baseline in central fluorescein staining, LS Mean ([2]; unanesthetized Schirmer's test <7 mm at baseline): −0.156
Change from baseline in central fluorescein staining, LS Mean ([2]; unanesthetized Schirmer's test ≥7 mm at baseline): −0.43
Odds Ratio, Logistic Regression, clearing of central corneal fluorescein staining, 1.55 μg/mL SkQ1 - Placebo ([2]; ITT subgroup Schirmer's ≥7 mm at baseline): 6.73
BCVA-logMAR change from baseline, LS Mean (SE) ([3]; 1.55 μg/mL SkQ1, ITT subgroup Schirmer's <7 mm): −0.0 (0.0137)
BCVA-logMAR change from baseline, LS Mean (SE) ([3]; 1.55 μg/mL SkQ1, Visit 3, ITT subgroup Schirmer's ≥7 mm): −0.012 (0.0143)
dose at which mild ocular toxicity is observed ([4]; in vivo): 45 μg/eye/day
no observed adverse effect level (NOAEL) for ocular toxicity ([4]; per eye per day): 4.5 μg/eye/day
